The conditions of data set [1]: CASR-2 dataset, aqueous solubility class 0-6; cited from earlier work.
The conditions of data set [2]: cited from earlier work.
For data set [3] the following is noted: cited from earlier work; for LogS(mol/L): SC2-2 dataset (Second Solubility Challenge, loose subset), aqueous solubility; for Class: SC2-2 dataset, aqueous solubility class 0-6.
Data set [4] can be described thus: Saturation shake-flask aqueous solubility, gravimetric determination. The note with it: for solubility at 48 h: Experimental Log S.
Method: Excess solid drug was added to a vial to prepare supersaturated aqueous solutions. The vial was placed in a constant temperature mixer (Titan Technology, SD2‐100) at 25 °C and shaken for 48 h at a speed of 500 rpm. […] After equilibration, the solution was centrifugated at room temperature at 8000 rpm, and the supernatant was collected. The concentration of the supernatant was determined using the gravimetric method. A measured volume of the supernatant (e.g. 1 mL) was transferred to a pre‐weighted empty vial, dried in a vacuum oven at 70 °C, and re‐weighed. The difference between the initial and final weights represents the drug content in the saturated solution. Each compound was tested in triplicate to ensure accuracy.
Data set [5] in a line: 1H NMR on the saturated aqueous solution. It counts as physicochemical. Here is the method: Each compound was tested in triplicate to ensure accuracy.

Values after ≈ are worked out from the molar mass of the structure shown. Values joined by “and” are separate entries in the source; they are usually repeats but may differ in a detail not shown here. Identical values can stand only once. Like-named read-outs stand apart in the source and are kept apart here.

Data on 23 compounds can be found in article PMC12697872, “Rethinking the AI Paradigm for Solubility Prediction of Drug‑Like Compounds with Dual‐Perspective Modeling and Experimental Validation” (Advanced Science, 2025).

In the case of `[2H]c1c([2H])c([2H])c2c(c1[2H])C([2H])([2H])C([2H])([2H])C([2H])([2H])C2([2H])[2H]`, the Class in data set [1] is on record as 3 (Sparingly soluble (3)). Besides, the LogS in data set [2] (CASR-1 curated training data, aqueous, 25 ± 2 °C) was -0.8582 mol/L. The “LogS(mol/L)” value in data set [2] (sheet Uncurated data, compiled records) is on record as -0.8582 mol/L.

Take `CCC(C)n1ncn(-c2ccc(N3CCN(c4ccc(OC[C@H]5CO[C@](Cn6cncn6)(c6ccc(Cl)cc6Cl)O5)cc4)CC3)cc2)c1=O` (stereo partly drawn): in data set [3], the “LogS(mol/L)” value is given as -8.98 mol/L and the Class was 6 (Practically insoluble or insoluble (6)).

As to `CCCc1nc2c(C)cc(-c3nc4ccccc4n3C)cc2n1Cc1ccc(-c2ccccc2C(=O)O)cc1`, in data set [3], the “LogS(mol/L)” value was -6.73 mol/L and the Class is recorded as 6 (Practically insoluble or insoluble (6)).

Take `CC(C)C[C@H]1C(=O)N2CCC[C@H]2[C@]2(O)O[C@](NC(=O)[C@@H]3C=C4c5cccc6[nH]c(Br)c(c56)C[C@H]4N(C)C3)(C(C)C)C(=O)N12`: in data set [3], the “LogS(mol/L)” value is recorded as -5.5 mol/L and the Class is listed as 6 (Practically insoluble or insoluble (6)).

As for `CC#C[C@]1(O)CC[C@H]2[C@@H]3CCC4=CC(=O)CCC4=C3[C@@H](c3ccc(N(C)C)cc3)C[C@@]21C`, in data set [3], the “LogS(mol/L)” value is on record as -5.22 mol/L and the Class is on record as 6 (Practically insoluble or insoluble (6)).

For `CC(C)N=c1cc2n(-c3ccc(Cl)cc3)c3ccccc3nc-2cc1Nc1ccc(Cl)cc1`, in data set [3], the “LogS(mol/L)” value is reported as -9.05 mol/L and the Class is 6 (Practically insoluble or insoluble (6)).

Turning to `CC[C@]1(c2ccccc2)OC[C@H]([C@@H]2CCCCN2)O1`, in data set [3], the “LogS(mol/L)” value is on record as -1.96 mol/L and the Class is 4 (Slightly soluble (4)).

In the case of `COC1C=COC2(C)Oc3c(C)c(O)c4c(c3C2=O)C2=NC3(CCN(CC(C)C)CC3)NC2=C(NC(=O)C(C)=CC=CC(C)C(O)C(C)C(O)C(C)C(OC(C)=O)C1C)C4=O` (stereo not drawn), in data set [3], the “LogS(mol/L)” value was -4.09 mol/L and the Class is reported as 6 (Practically insoluble or insoluble (6)).

As to `CO[C@]12CC[C@@]3(C[C@@H]1[C@@](C)(O)C(C)(C)C)[C@H]1Cc4ccc(O)c5c4[C@@]3(CCN1CC1CC1)[C@H]2O5`, in data set [3], the “LogS(mol/L)” value is -6.07 mol/L and the Class was 6 (Practically insoluble or insoluble (6)).

Turning to `COc1cc(/C=C/C(=O)CC(=O)/C=C/c2ccc(O)c(OC)c2)ccc1O`, in data set [3], the “LogS(mol/L)” value was -5.36 mol/L and the Class is on record as 6 (Practically insoluble or insoluble (6)).

Consider `COc1ccc2[nH]c([S+]([O-])Cc3ncc(C)c(OC)c3C)nc2c1` (stereo not drawn), for which, in data set [3], the “LogS(mol/L)” value is listed as -3.7 mol/L and the Class is listed as 6 (Practically insoluble or insoluble (6)).

Turning to `Clc1ccc(COC(Cn2ccnc2)c2ccc(Cl)cc2Cl)c(Cl)c1` (stereo not drawn), in data set [3], the “LogS(mol/L)” value was -5.82 mol/L and the Class is given as 6 (Practically insoluble or insoluble (6)).

Consider `O=C1[C@H](CC[C@H](O)c2ccc(F)cc2)[C@@H](c2ccc(O)cc2)N1c1ccc(F)cc1`, for which, in data set [3], the “LogS(mol/L)” value was -4.94 mol/L and the Class was 6 (Practically insoluble or insoluble (6)).

`O=C(c1ccc(OCCN2CCCCC2)cc1)c1c(-c2ccc(O)cc2)sc2cc(O)ccc12`: in data set [3], the Class was 6 (Practically insoluble or insoluble (6)).

With `CC(C)NCC(O)COc1ccc(COCCOC(C)C)cc1` (stereo not drawn) [CC(C)NCC(O)COc1ccc(COCCOC(C)C)cc1], in data set [3], the “LogS(mol/L)” value is on record as -2.09 mol/L and the Class is 4 (Slightly soluble (4)).

Turning to `CCN(CC)CCOC(=O)c1ccc(N)cc1` [CCN(CC)CCOC(=O)c1ccc(N)cc1], in data set [3], the “LogS(mol/L)” value is given as -2.3 mol/L and the Class is 4 (Slightly soluble (4)).

`CCc1ccc(CCOc2ccc(CC3SC(=O)NC3=O)cc2)nc1` (stereo not drawn) [CCc1ccc(CCOc2ccc(CC3SC(=O)NC3=O)cc2)nc1]: in data set [3], the “LogS(mol/L)” value is -6.2 mol/L and the Class is 6 (Practically insoluble or insoluble (6)).

For `COc1cc(NS(=O)(=O)c2ccc(N)cc2)nc(OC)n1` [COc1cc(NS(=O)(=O)c2ccc(N)cc2)nc(OC)n1], in data set [3], the “LogS(mol/L)” value is recorded as -3.74 mol/L and the Class is listed as 6 (Practically insoluble or insoluble (6)).

For the compound `O=C(O)c1cc(-c2ccc(F)cc2F)ccc1O` [O=C(O)c1cc(-c2ccc(F)cc2F)ccc1O], in data set [3], the “LogS(mol/L)” value is on record as -4.99 mol/L and the Class is reported as 6 (Practically insoluble or insoluble (6)).

On to `O=c1[nH]cnc2c1ncn2[C@H]1CC[C@@H](CO)O1` [O=c1[nH]cnc2c1ncn2[C@H]1CC[C@@H](CO)O1], for which, in data set [3], the Class is given as 3 (Sparingly soluble (3)).

A word on the thermodynamic solubility: it is the concentration in solution at equilibrium with solid. As a reminder, the solubility is the concentration that dissolves in the medium under given conditions. Read a low solubility as little dissolved substance. Take `CC(=C(CCO)SSC(CCO)=C(C)N(C=O)Cc1cnc(C)nc1N)N(C=O)Cc1cnc(C)nc1N` [Thiamine disulfide]: the “Experimental Class” value in data set [4] (European Pharmacopoeia solubility class from the experimental solubility) is 4 (Slightly soluble (4)). The “Experimental Log S” value in data set [4] (single replicate of triplicate) was -2.3811 and -2.3222. In addition, the “Experimental S” value in data set [4] (single replicate of triplicate) was 1.9700 and 2.3400 and 2.6800. In data set [4] (water (saturated aqueous solution), 25 °C, water, thermodynamic from solid), the thermodynamic solubility at 48 h came out at 2.33 mg/mL (≈ 4.14 mM). Besides, the solubility at 48 h in data set [4] (water, 25 °C, thermodynamic from solid, averaged over triplicate) was 4.11 mM (≈ 2310 µg/mL); in data set [4] (water, 25 °C, thermodynamic from solid, shaken 48 h, triplicate, Log S = base-10 logarithm of moles per liter) it was 4.11 mM (≈ 2310 µg/mL); in data set [4] (water, 25 °C, thermodynamic from solid, single replicate of triplicate) it was 3.5 mM (≈ 1970 µg/mL).

For the compound `c1ccc2[nH]c(-c3cscn3)nc2c1` [c1ccc2[nH]c(-c3cscn3)nc2c1], the Class in data set [3] is on record as 6 (Practically insoluble or insoluble (6)).

With `CCCC(=O)OC[C@@H](OC(=O)CCC)[C@@H](OC(=O)CCC)[C@H](Cn1c2nc(=O)[nH]c(=O)c-2nc2cc(C)c(C)cc21)OC(=O)CCC` [riboflavin tetrabutyrate], the “Solute in saturated aqueous solution by 1H NMR” value in data set [5] is “no existence of solute in the solution”.
